From PubChem BioAssay AID248 (DTP/NCI, 2004)
“And” between values parts separate entries of the source, which are not always exact repeats. Identical values can stand only once. Inconclusive results and toxic doses are left out. Cut-off read from the data, not from the text of the source: active = T/C of 150% or more; inactive = T/C below 125%.

Test system: L1210 leukemia ip in BDF1 mice, survival T/C
Assay: NCI In Vivo Anticancer Drug Screen. Data for tumor model L1210 Leukemia (intraperitoneal) in B6D2F1 (BDF1) mice
Conditions: endpoint: mean survival time, higher = longer survival
In short: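 Transplanted-tumor mice were given test agent; controls received vehicle only. Survival readings from the two groups were divided (treated over control).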

[1] = dose: 100.0 mg/kg/injection, schedule: Q01DX001 (ip), vehicle: saline with Tween-80
[2] = dose: 200.0 mg/kg/injection, schedule: Q01DX001 (ip), vehicle: saline with Tween-80
[3] = dose: 400.0 mg/kg/injection, schedule: Q01DX001 (ip), vehicle: saline with Tween-80
[4] = dose: 100.0 mg/kg/injection, schedule: Q01DX009 (ip), vehicle: saline
[5] = dose: 200.0 mg/kg/injection, schedule: Q01DX009 (ip), vehicle: saline
[6] = dose: 100.0 mg/kg/injection, schedule: Q01DX009 (ip), vehicle: saline with Tween-80
[7] = dose: 100.0 mg/kg/injection, schedule: Q04DX003 (ip), vehicle: saline with Tween-80
[8] = dose: 100.0 mg/kg/injection, schedule: Q04DX003 (ip), vehicle: Klucel (hydroxypropylcellulose) (HPC)
[9] = dose: 200.0 mg/kg/injection, schedule: Q04DX003 (ip), vehicle: Klucel (hydroxypropylcellulose) (HPC)

Measured: T/C

COC1CCC2C(C1)C(=O)CC1c3[nH]c4ccccc4c3CCN12 (stereo unspecified)
inactive: [1] 100 % of control | [2] 101 % of control | [3] 99 % of control

CCN(CC)CCCC(C)Nc1ccnc2cc(C(F)(F)F)ccc12 (stereo unspecified)
inactive: dose: 5.0 mg/kg/injection, schedule: Q01DX001 (ip), vehicle: carboxymethylcellulose (CMC) 104 % of control | dose: 10.0 mg/kg/injection, schedule: Q01DX001 (ip), vehicle: carboxymethylcellulose (CMC) 106 % of control | dose: 20.0 mg/kg/injection, schedule: Q01DX001 (ip), vehicle: carboxymethylcellulose (CMC) 90 % of control | dose: 40.0 mg/kg/injection, schedule: Q01DX001 (ip), vehicle: carboxymethylcellulose (CMC) 104 % of control

Cc1cnc(N(C)CC(=O)O)nc1-c1ccccc1O
inactive: dose: 100.0 mg/kg/injection, schedule: Q04DX002 (ip), vehicle: Klucel (hydroxypropylcellulose) (HPC) 96 % of control | dose: 200.0 mg/kg/injection, schedule: Q04DX002 (ip), vehicle: Klucel (hydroxypropylcellulose) (HPC) 89 % of control

CCOC(O)C(Cl)(Cl)Cl (stereo unspecified)
inactive: [4] 103 % of control | dose: 100.0 mg/kg/injection, schedule: Q04DX003 (ip), vehicle: saline 100 % of control | [5] 102 % of control | dose: 200.0 mg/kg/injection, schedule: Q04DX003 (ip), vehicle: saline 103 % of control | dose: 400.0 mg/kg/injection, schedule: Q01DX009 (ip), vehicle: saline 92 % of control | dose: 400.0 mg/kg/injection, schedule: Q04DX003 (ip), vehicle: saline 90 % of control

CCNC(=S)Nc1ccc(Cl)cc1
inactive: dose: 25.0 mg/kg/injection, schedule: Q01DX009 (ip), vehicle: saline with Tween-80 93 % of control | dose: 50.0 mg/kg/injection, schedule: Q01DX009 (ip), vehicle: saline with Tween-80 95 % of control | [6] 97 % of control | [7] 104 % of control

CCN(CC)CCC(CNc1c(C)cnc2cc(Cl)ccc12)c1ccc(Cl)cc1 (stereo unspecified)
inactive: [7] 100 % of control | dose: 200.0 mg/kg/injection, schedule: Q04DX003 (ip), vehicle: saline with Tween-80 100 % of control | dose: 400.0 mg/kg/injection, schedule: Q04DX003 (ip), vehicle: saline with Tween-80 94 % of control

C=CCC1(O)C(c2ccccc2)=C(c2ccccc2)C(c2ccccc2)=C1c1ccccc1
inactive: dose: 50.0 mg/kg/injection, schedule: Q01DX001 (ip), vehicle: other 98 % of control | dose: 100.0 mg/kg/injection, schedule: Q01DX001 (ip), vehicle: other 96 % of control | dose: 200.0 mg/kg/injection, schedule: Q01DX001 (ip), vehicle: other 98 % of control | dose: 400.0 mg/kg/injection, schedule: Q01DX001 (ip), vehicle: other 98 % of control

CCc1ccccc1Nc1cc(=O)[nH]c(=O)[nH]1
inactive: dose: 37.5 mg/kg/injection, schedule: Q01DX001 (ip), vehicle: Klucel (hydroxypropylcellulose) (HPC) 91 % of control | dose: 75.0 mg/kg/injection, schedule: Q01DX001 (ip), vehicle: Klucel (hydroxypropylcellulose) (HPC) 87 % of control | dose: 150.0 mg/kg/injection, schedule: Q01DX001 (ip), vehicle: Klucel (hydroxypropylcellulose) (HPC) 93 % of control

CCCCCOC(=O)Nc1ccc(S(=O)(=O)N(C)C)cc1
inactive: dose: 100.0 mg/kg/injection, schedule: Q01DX001 (ip), vehicle: saline 100 % of control | dose: 200.0 mg/kg/injection, schedule: Q01DX001 (ip), vehicle: saline 108 % of control | dose: 400.0 mg/kg/injection, schedule: Q01DX001 (ip), vehicle: saline 100 % of control

C/C=C/C(C#N)Nc1ccccc1C(N)=O (stereo unspecified)
inactive: dose: 12.5 mg/kg/injection, schedule: Q04DX003 (ip), vehicle: Klucel (hydroxypropylcellulose) (HPC) 91 % of control | dose: 25.0 mg/kg/injection, schedule: Q01DX009 (ip), vehicle: Klucel (hydroxypropylcellulose) (HPC) 104 % of control | dose: 25.0 mg/kg/injection, schedule: Q04DX003 (ip), vehicle: Klucel (hydroxypropylcellulose) (HPC) 96 % of control | dose: 50.0 mg/kg/injection, schedule: Q01DX009 (ip), vehicle: Klucel (hydroxypropylcellulose) (HPC) 103 % of control | dose: 50.0 mg/kg/injection, schedule: Q04DX003 (ip), vehicle: Klucel (hydroxypropylcellulose) (HPC) 102 % of control | dose: 100.0 mg/kg/injection, schedule: Q01DX009 (ip), vehicle: Klucel (hydroxypropylcellulose) (HPC) 95 % of control | [8] 94 % of control

C[Si](F)(c1cccc2ccccc12)c1cccc2ccccc12
inactive: [1] 97 % of control | [2] 103 % of control | [3] 102 % of control

O=C(CC(O)(C(F)(F)F)C(F)(F)F)c1ccc(Cl)c([N+](=O)[O-])c1
inactive: dose: 75.0 mg/kg/injection, schedule: Q01DX009 (ip), vehicle: Klucel (hydroxypropylcellulose) (HPC) 102 % of control | dose: 150.0 mg/kg/injection, schedule: Q01DX009 (ip), vehicle: Klucel (hydroxypropylcellulose) (HPC) 100 % of control

O=C(NC1CCC12CC2)c1ccc2ccccc2c1 (stereo unspecified)
inactive: dose: 37.5 mg/kg/injection, schedule: Q04DX002 (ip), vehicle: saline with Tween-80 97 % of control | dose: 75.0 mg/kg/injection, schedule: Q04DX002 (ip), vehicle: saline with Tween-80 93 % of control | dose: 150.0 mg/kg/injection, schedule: Q04DX002 (ip), vehicle: saline with Tween-80 93 % of control | dose: 300.0 mg/kg/injection, schedule: Q04DX002 (ip), vehicle: saline with Tween-80 93 % of control

CS(=O)(=O)c1nc(Cl)nc(S(C)(=O)=O)c1Cl
inactive: [8] 110 % of control | [9] 107 % of control | dose: 400.0 mg/kg/injection, schedule: Q04DX003 (ip), vehicle: Klucel (hydroxypropylcellulose) (HPC) 104 % of control

FC(F)(F)c1cccc(NC(=S)Nc2ccccc2S)c1
inactive: [6] 103 % of control | dose: 100.0 mg/kg/injection, schedule: Q04DX002 (ip), vehicle: saline with Tween-80 93 % of control | dose: 200.0 mg/kg/injection, schedule: Q01DX009 (ip), vehicle: saline with Tween-80 98 % of control | dose: 200.0 mg/kg/injection, schedule: Q04DX002 (ip), vehicle: saline with Tween-80 96 % of control | dose: 400.0 mg/kg/injection, schedule: Q01DX009 (ip), vehicle: saline with Tween-80 124 % of control | dose: 400.0 mg/kg/injection, schedule: Q04DX002 (ip), vehicle: saline with Tween-80 101 % of control

CCOS(C)(=O)=O
inactive: dose: 50.0 mg/kg/injection, schedule: Q01DX009 (ip), vehicle: saline 98 % of control | [4] 101 % of control | dose: 100.0 mg/kg/injection, schedule: Q04DX003 (ip), vehicle: alcohol 102 % of control | [5] 104 % of control | dose: 200.0 mg/kg/injection, schedule: Q04DX003 (ip), vehicle: alcohol 102 % of control

O=NO.O=N[O-].O=N[O-].[Co+3].[NH-]CC[N-]CCO.[NH-]CC[N-]CCO
inactive: dose: 25.0 mg/kg/injection, schedule: Q01DX009 (ip), vehicle: water 107 % of control | dose: 25.0 mg/kg/injection, schedule: Q04DX003 (ip), vehicle: water 100 % of control | dose: 50.0 mg/kg/injection, schedule: Q01DX009 (ip), vehicle: water 106 % of control and 107 % of control | dose: 50.0 mg/kg/injection, schedule: Q04DX003 (ip), vehicle: water 103 % of control | dose: 100.0 mg/kg/injection, schedule: Q01DX009 (ip), vehicle: water 111 % of control | dose: 100.0 mg/kg/injection, schedule: Q04DX003 (ip), vehicle: water 98 % of control and 101 % of control

Cc1ccc2nc3c4ccccc4scc-3c2c1
inactive: dose: 100.0 mg/kg/injection, schedule: Q04DX003 (ip), vehicle: acetone 93 % of control

O=C1C=Cc2cccc3cccc1c23
inactive: [8] 98 % of control | [9] 112 % of control
